One series concerns Jurkat cells. The experiment in a line: Inhibition of Jurkat cell proliferation (CellTiter-Glo, 72 hours). Type of series: cell-based. Particulars: Homo sapiens; Jurkat cells, 72 hours, CellTiter-Glo; read-out: Jurkat (IC50). The procedure: Select Jurkat cells in good growth condition and digest them with trypsin. Add fresh culture medium, mix thoroughly, and centrifuge at 1000 rpm for 5 minutes. Seed the cells into a 96-well plate at a density of 10,000 cells per well, and incubate overnight in a 37° C. incubator. On the following day, take out of the culture plate and treat the cells with compounds prepared in a five-fold serial dilution. Return the plate to the 37° C. incubator and continue incubation for 72 hours.
After incubation, bring out the cell culture plate and equilibrate it to room temperature. Add 100 μL of CellTiter-Glo reagent to each well, shake in the dark for 2 minutes, and incubate for 10 minutes. Measure the luminescence using an Enspire plate reader. Calculate the inhibition rate using the following formula: Inhibition rate (%)=(1−(RLU_compound−RLU_blank)/(RLU_DMSO−RLU_blank))×100%. Plot the dose-response curve and calculate the IC50 value using XLFit.
(ATP-based viability assays read luminescence as a measure of living cells.)

For a further series, the target named is T1, hCTPS1 enzyme (Homo sapiens, UniProt P17812).
T1 sequence (P17812 1-591): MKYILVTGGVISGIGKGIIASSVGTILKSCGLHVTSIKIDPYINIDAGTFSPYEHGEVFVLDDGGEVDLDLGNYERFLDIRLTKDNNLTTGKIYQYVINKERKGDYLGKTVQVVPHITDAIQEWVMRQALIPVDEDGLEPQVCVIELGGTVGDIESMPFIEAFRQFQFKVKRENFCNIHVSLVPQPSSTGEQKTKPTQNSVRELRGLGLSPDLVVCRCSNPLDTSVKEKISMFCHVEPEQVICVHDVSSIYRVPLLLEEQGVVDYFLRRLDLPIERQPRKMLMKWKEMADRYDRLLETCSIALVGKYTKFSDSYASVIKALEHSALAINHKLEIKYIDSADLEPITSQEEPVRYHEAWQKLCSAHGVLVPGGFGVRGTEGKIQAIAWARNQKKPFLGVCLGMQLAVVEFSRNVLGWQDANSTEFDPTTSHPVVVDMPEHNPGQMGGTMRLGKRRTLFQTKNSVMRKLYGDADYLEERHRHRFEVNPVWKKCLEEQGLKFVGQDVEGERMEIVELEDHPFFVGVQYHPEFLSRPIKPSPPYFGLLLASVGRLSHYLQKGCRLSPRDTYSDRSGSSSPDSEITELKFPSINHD
The experiment in a line: Inhibition of CTPS1 enzyme activity (ADP-Glo method). Particulars: hCTPS1, 90 min reaction at 25° C. It counts as biochemical. As for the experimental part: The enzyme activity of CTPS1 was tested using the ADP-Glo method. Compounds were serially diluted in DMSO with 3-fold gradients across ten concentrations. Transfer 0.1 μL of diluted compound to a 384-well plate, centrifuge at 1000 rpm for 1 min. Add 2.5 μL of hCTPS1 enzyme working solution, centrifuge at 1000 rpm for 1 min, and incubate at 25° C. for 10 min. Add 2.5 μL of ATP & UTP solution and incubate at 25° C. for 10 min. Add 5 μL of substrate solution to initiate the reaction and incubate at 25° C. for 90 min. Add 10 μL of ADP-Glo solution to the 384-well plate, centrifuge at 1000 rpm for 1 min, incubate at 25° C. for 40 min, add 20 μL of detection solution, centrifuge at 1000 rpm for 1 min, and incubate at 25° C. for 60 min. […] were read using a BMG microplate reader. Inhibition rate (%) was calculated as follows: Inhibition rate (%)=[(DMSO control well signal−Compound well signal)/(DMSO control well signal−Blank control well signal)]×100%. IC50 values for compounds were analyzed by nonlinear regression in XLFit 5.5.0 software using the formula: Y=Bottom+(Top−Bottom)/(1+10^((LogIC50−X)*HillSlope)) where Y is the inhibition rate and X is the log value of compound concentration.
Background: ADP-Glo turns the ADP formed in a reaction into a luminescent signal.

A further series is described as follows: in vivo. Also noted: species or system SD rats. The settings on record: male, SD, rat, po. The procedure: Instrumentation: SCIEX Triple Quad 6500+ triple quadrupole liquid chromatography-mass spectrometry system (LC-MS/MS), operating software is Analyst 1.7.2 (Applied Biosystems, USA); ExionLC liquid chromatography system; Microsoft Excel was used for data calculation and processing. Pharmacokinetic parameters were calculated using the statistical moment method with WinNonlin 8.2 software. Key kinetic parameters included Tmax, T1/2, Cmax, AUC0-24 h etc. Column: Synergi 4 μm Fusion-RP 80 Å Luna C18 2 mm*50 mm, 4 μm; Column temperature: 40° C.; Mobile phase A: Water (0.1% formic acid); Mobile phase B: Acetonitrile; Flow rate: 0.8 mL/min; Gradient elution is adopted, the elution gradient is 0.10 min: 15% B; 1.60 min: 95% B; 1.90 min: 95% B; 1.91 min: 15% B; 2.20 min: 15% B. Injection volume: 1 μL.
Animals: 3 male SD rats with a weight range of 200-220 g were purchased and kept in the laboratory of the Experimental Animal Center for 3 days and then used. They were fasted for 12 hours predose and 4 hours after dosing. Drinking water was free during the test. After the rats were gavage, blood samples were taken according to the established time point.
Solvent: 0.4% ethanol+0.4% Tween80+99.2% (0.5% methylcellulose M450). Preparation of the solution for intragastric administration: Compounds were accurately weighed and added to the solvent. The mixture was then subjected to vortex mixing and sonication until a homogeneous suspension was achieved, thereby preparing medicinal solutions of the desired concentrations.
Compound samples: Typically, multiple structurally analogous compounds (with molecular weights differing by more than 2 units) were accurately weighed and administered together (cassette PK). This approach allows for the simultaneous screening of multiple compounds and comparison of their oral absorption rates. Single compound administration was also employed to study the pharmacokinetics of drug samples in rats.
After intragastric administration, blood was collected from the jugular vein at 0.25, 0.5, 1, 2, 4, 8, 10 and 24 hours. Transfer 20 μL of plasma sample (for blank samples and internal standard blank samples, add 20 μL of blank plasma) to a 1.5 mL centrifuge tube, add 200 μL of internal standard solution (50% methanol in acetonitrile (concentration 100 ng/mL)) (for Double blank samples, add 200 μL of 50% methanol in acetonitrile solution). Vortex the samples for 5 minutes, then centrifuge at 14000 rpm and 4° C. for 5 minutes. Transfer 80 μL and add to 80 μL of water, mix uniformly, and submit for LC-MS/MS analysis.
The compounds were accurately weighed to prepare different concentrations, and quantitative analysis on mass spectrometry was performed to establish a standard curve, and then the concentration of the above-mentioned compound in the plasma was tested to obtain its concentration at different time points. All measurement data were collected and processed by relevant software, and the statistical moment method was used to calculate the pharmacokinetic parameters (mainly including kinetic parameters Tmax, T1/2, Cmax, AUC0-24 h etc).

As a reminder, the IC50 is the concentration that inhibits the measured activity by half. In general, AUC(0-t) refers to exposure summed from dosing to a finite time, without extrapolation to infinity. The term Cmax denotes the peak of the concentration-time curve. Usually Tmax stands for the time at which the peak concentration occurs. The half-life is the time in which the quantity being followed falls by half.

Turning to `CCOc1cncc(-c2ccc(NC(=O)C3(c4ccnc(NS(=O)(=O)C5CC5)n4)CCC(=CC4CCOCC4)CC3)nc2)n1` (stereo not drawn) [Compound 32], in the series with Jurkat cells, the IC50 is less than 15 nM. This molecule also registered an IC50 at hCTPS1 enzyme of less than 25 nM. In the series “in vivo” (3 mg/kg), the AUC(0-t) was 15700 ng·h/mL, the Cmax came to 4020 ng/mL, the Tmax is 0.83 h and the half-life is 1.34 h.

For `CCOc1cncc(-c2ccc(NC(=O)C3(c4ccnc(NS(=O)(=O)C5CC5)n4)CCC(=CC4COC4)CC3)nc2)n1` (stereo not drawn) [Compound 36], in the series with Jurkat cells, the IC50 is less than 5 nM. This molecule came in with an IC50 at hCTPS1 enzyme of less than 25 nM. In addition, in “in vivo” (3 mg/kg), the AUC(0-t) was found to be 6250 ng·h/mL, the Cmax turned out to be 3770 ng/mL, the Tmax came out at 0.25 h and the half-life is 2.8 h.

On to `CCOc1cncc(-c2ccc(NC(=O)C3(c4ccnc(NS(=O)(=O)C5CC5)n4)CCC(=C(F)CO)CC3)nc2)n1` (stereo not drawn) [Compound 39], for which the IC50 in the series on Jurkat cells was less than 15 nM. In addition, the IC50 on hCTPS1 enzyme is less than 25 nM. Besides, in the series “in vivo” (2 mg/kg), the AUC(0-t) stood at 1470 ng·h/mL, the Cmax is 837 ng/mL, the time of peak concentration (Tmax) is 1.33 h and the half-life is 2.48 h.

With `CCOc1cncc(-c2ccc(NC(=O)C3(c4ccnc(NS(=O)(=O)C5CC5)n4)CCC(=CCCO)CC3)nc2)n1` (stereo not drawn) [Compound 44], the IC50 in the series on Jurkat cells is less than 15 nM. In addition, the IC50 on hCTPS1 enzyme was less than 25 nM. Besides, in “in vivo” (2 mg/kg), the AUC(0-t) came to 33 ng·h/mL, the Cmax was found to be 10.5 ng/mL, the Tmax stood at 1.17 h and the half-life was 1.77 h.

For `CCOc1cncc(-c2ccc(NC(=O)C3(c4ccnc(NS(=O)(=O)C5CC5)n4)CCC(=C(C)CO)CC3)nc2)n1` (stereo not drawn) [Compound 47], the IC50 with Jurkat cells was less than 15 nM. Further, the IC50 against hCTPS1 enzyme was less than 25 nM. In “in vivo” (2 mg/kg), the area under the curve AUC(0-t) stood at 1410 ng·h/mL, the Cmax worked out at 1820 ng/mL, the Tmax amounted to 0.25 h and the half-life was 2.01 h.

As for `CCOc1cncc(-c2ccc(NC(=O)C3(c4ccnc(NS(=O)(=O)C5CC5)n4)CCC(=C(F)C4COC4)CC3)nc2)n1` (stereo not drawn) [Compound 50], the IC50 with Jurkat cells is less than 15 nM. Besides, on hCTPS1 enzyme, the IC50 is less than 25 nM. In the series “in vivo” (2 mg/kg), the exposure AUC(0-t) was found to be 2160 ng·h/mL, the Cmax was determined as 1020 ng/mL, the Tmax stood at 0.25 h and the half-life was 1.13 h.

In the case of `CCOc1cncc(-c2ccc(NC(=O)C3(c4ccnc(NS(=O)(=O)C5CC5)n4)CCC(=C(F)C4CCOCC4)CC3)nc2)n1` (stereo not drawn) [Compound 52], in the series on Jurkat cells, the 50% inhibitory concentration (IC50) was less than 15 nM. The IC50 at hCTPS1 enzyme was less than 25 nM. Further, in “in vivo” (1.5 mg/kg), the AUC(0-t) came out at 7640 ng·h/mL, the highest concentration (Cmax) was 1210 ng/mL, the Tmax was found to be 2 h and the half-life is 2.01 h.

As for `CCOc1cncc(-c2ccc(NC(=O)C3(c4ccnc(NS(=O)(=O)C5CC5)n4)CCC(=CCC(C)(C)O)CC3)nc2)n1` (stereo not drawn) [Compound 58], in the series with Jurkat cells, the IC50 is less than 15 nM. Also, the IC50 at hCTPS1 enzyme is less than 25 nM. Also, in the series “in vivo” (3 mg/kg), the AUC(0-t) worked out at 25100 ng·h/mL, the Cmax was found to be 4540 ng/mL, the Tmax worked out at 2.17 h and the half-life is 2.53 h.

As for `CCOc1cncc(-c2ccc(NC(=O)C3(c4ccnc(NS(=O)(=O)C5CC5)n4)CCC(=CCC4COC4)CC3)nc2)n1` (stereo not drawn) [Compound 63], the IC50 in the series with Jurkat cells was less than 15 nM. The molecule also had an IC50 on hCTPS1 enzyme of less than 25 nM. In the series “in vivo” (3 mg/kg), the AUC(0-t) stood at 37600 ng·h/mL, the highest concentration (Cmax) worked out at 4820 ng/mL, the Tmax stood at 2.33 h and the half-life is 3.03 h.

As for `CCOc1cncc(-c2ccc(NC(=O)C3(c4cncc(NS(=O)(=O)C5CC5)n4)CCC(=C(F)F)CC3)nc2)n1` (stereo not drawn) [Compound 68], the IC50 in the series on Jurkat cells is less than 15 nM. The IC50 at hCTPS1 enzyme is less than 25 nM. Also, in the series “in vivo” (3 mg/kg), the AUC(0-t) amounted to 40800 ng·h/mL, the Cmax is 6810 ng/mL, the Tmax was 2.17 h and the half-life was 1.83 h.

On to `CCOc1cncc(-c2ccc(NC(=O)C3(c4ccnc(NS(=O)(=O)C5CC5)n4)CCC(=C(F)CC4COC4)CC3)nc2)n1` (stereo not drawn) [Compound 69], for which the IC50 in the series on Jurkat cells is less than 15 nM. The same molecule had a half-maximal inhibitory concentration (IC50) on hCTPS1 enzyme of less than 50 nM. In “in vivo” (2 mg/kg), the AUC(0-t) was 11300 ng·h/mL, the Cmax worked out at 2330 ng/mL, the Tmax worked out at 1.83 h and the half-life is 1.89 h.

Values taken from patent US20260226026A1, “COMPOUND AS CTPS1 INHIBITOR” (Hangzhou Innogate Pharma Co., Ltd., priority 2023, published 2026).
